Experimental data from patent US20250011738A1, “HEAT TOLERANT ALKALINE PHOSPHATASE” (BiomEdit, LLC, priority 2021, published 2025).

Biological target: T1, Paenibacillus lentus alkaline phosphatase AP1 (designated "Native"), serine (S) replacement for an aspartic acid (D), SEQ ID NO: 4 (Paenibacillus lentus, UniProt A0A3Q8S6G4, D102S)
T1 sequence (A0A3Q8S6G4 34-572 D102S): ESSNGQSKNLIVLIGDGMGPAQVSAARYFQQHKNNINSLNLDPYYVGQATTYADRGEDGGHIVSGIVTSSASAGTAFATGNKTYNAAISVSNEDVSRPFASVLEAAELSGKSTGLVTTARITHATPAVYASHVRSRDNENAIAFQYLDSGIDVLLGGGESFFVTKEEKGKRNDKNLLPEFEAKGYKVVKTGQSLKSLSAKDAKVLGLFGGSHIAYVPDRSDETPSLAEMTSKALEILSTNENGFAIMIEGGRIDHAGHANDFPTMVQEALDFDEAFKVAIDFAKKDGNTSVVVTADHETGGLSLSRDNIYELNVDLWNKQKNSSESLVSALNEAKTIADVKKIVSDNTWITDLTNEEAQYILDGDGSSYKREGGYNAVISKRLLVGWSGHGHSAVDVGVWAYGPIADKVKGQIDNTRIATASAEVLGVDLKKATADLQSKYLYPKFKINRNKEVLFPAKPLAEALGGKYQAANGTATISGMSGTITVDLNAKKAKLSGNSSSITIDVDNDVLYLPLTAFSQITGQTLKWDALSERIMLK
Test: Phosphatase kinetics with p-NPP, AP1 ("Native")
Format: biochemical
Protocol: FIG. 7 presents effect of pH on (A)Vmax (IU/mg) and (B) KM (μM) activity of AP1 (designated “Native”) and APHT (designated “HT”). Assays were performed at 40° C. with p-NPP as substrate in the concentration range 0-5 mM. The enzyme concentration was 2.5 μg/mL for the pH 8 and 0.4 mg/mL for pH 9-13).
FIG. 8 presents effect of pH on (A)Vmax (IU/mg) and (B) KM (μM) activity of AP1 (designated “Native”) and APHT (designated “HT”). Assays were performed at 50° C. with p-NPP as substrate in the concentration range 0-5 mM. The enzyme concentration was 2.5 μg/mL for the pH 8 and 0.4 mg/mL for pH 9-13).
Enzymes, including lysozyme and alkaline phosphatase, are recognized as disruptors of bacterial debris and inflammation. These enzymes reduce inflammation, including by lysing the peptidoglycans and LPS of bacteria, thus deactivating them and thereby bypassing the inflammatory response. An alkaline phosphatase was initially identified and modified from Paenibacillus lentus bacteria and expressed for application and use as a farm animal feed additive. This modified alkaline phosphatase is characterized by having a serine (S) replacement for an aspartic acid (D) in the native bacterial alkaline phosphatase protein sequence and is designated herein as AP1. […] The AP1 alkaline phosphate is described including in U.S. Pat. No. 9,326,535 issued May 3, 2016. The sequence of AP1 is as follows (the serine is in bold and underlined) (SEQ ID NO:4):
• 1 M DEA Buffer pH 10. Dissolve 10.5 g of diethanolamine in to 100 ml of water. The pH adjust with 1 M hydrochloric acid or 1 M NaOH. Filter sterilize and store at 4 C. • 0.5 M Tris Base Buffer pH 10 and 8. Dissolve 6.06 g of Tris in to 100 ml of water. The pH adjust with 1 M hydrochloric acid or 1 M NaOH. Filter sterilize and store at 4 C. • 0.1 M Borate Buffer pH 11 and 12. Dissolve 0.62 g Boric acid, 0.44 g NaCl and Sodium tetraborate 0.95 g in 100 ml H2O. The pH adjust with 1 M hydrochloric acid or 1 M NaOH. Filter sterilize and store at 4 C. • 1 M KCl/NaOH Buffer pH 13. Dissolve 7.4 g KCl in 100 ml water. The pH adjust with 1 M NaOH. Filter sterilize and store at 4 C. • 1 M MgCl2, 23.8 g MgCl2 anhydrous in […] water. Filter sterilize and store at 4 C 3. Activity Assay: p-NPP Substrate
Reactions were carried out at 40° C. using 50 mM Tris buffer pH 7 with 50 mM MgCl2 and at 50° C. using 50 mM DEA buffer pH 10 with 50 mM MgCl2. Enzyme was thawed, aliquoted in 500 μL vials and freeze at −80° C. For 100 μL volume of reaction, components were mixed in 96-well microplate (Fisher 12565501) following the order in TABLE 1. Every reaction condition was done by triplicated at least.
After the adding enzyme, the absorption of product was followed at 405 nm over 5 min in a M5 plate reader with intervals of 20 s. Initial rate was determined for each curve and product formed calculated using the extinction coefficient of 18.5 mM^−1·cm^−1 and a calculated pathlength of 0.5 cm. Initial rates where fitted to Michalis Menten model built in the Kaleidagraph software.
pH effect on enzyme activity was tested at 40 and 50° C. in the corresponding buffer with 50 mM MgCl2 using p-NPP as substrate in the concentration range 0-5.0 mM. The reaction started with the addition of enzyme (2.5 μg/mL for pH 8 and 0.4 μg/mL for pH 9-13) and the absorption at 405 nm was followed for 5 min. Every reaction condition was done by triplicated at least. The initial rates where fitted to Michalis Menten model built in the software Kaleidagraph.

O=[N+]([O-])c1ccc(OP(=O)(O)O)cc1 [p-NPP, p-nitrophenylphosphate]
Km (40° C., Borate pH 11): 3340 µM | Km (40° C., DEA pH 10): 776 µM | Km (40° C., Tris pH 8): 65 µM | Km (40° C., Tris pH 9): 315 µM | Km (50° C., Borate pH 11): 573 µM | Km (50° C., Borate pH 12): 293 µM | Km (50° C., KCl/NaOH (pH printed 204; Table 2: 13.0)): 64 µM | Km (50° C., Tris pH 8): 383 µM | Km (50° C., Tris pH 9): 1440 µM
